Assay results from ChEMBL document CHEMBL1125568, “ATP-citrate lyase as a target for hypolipidemic intervention. Sulfoximine and 3-hydroxy-beta-lactam containing analogues of citric acid as potential tight-binding inhibitors” (J Med Chem, 1992).

T1: ATP-citrate synthase (Rattus norvegicus, UniProt P16638)
T1 sequence (P16638 whole entry): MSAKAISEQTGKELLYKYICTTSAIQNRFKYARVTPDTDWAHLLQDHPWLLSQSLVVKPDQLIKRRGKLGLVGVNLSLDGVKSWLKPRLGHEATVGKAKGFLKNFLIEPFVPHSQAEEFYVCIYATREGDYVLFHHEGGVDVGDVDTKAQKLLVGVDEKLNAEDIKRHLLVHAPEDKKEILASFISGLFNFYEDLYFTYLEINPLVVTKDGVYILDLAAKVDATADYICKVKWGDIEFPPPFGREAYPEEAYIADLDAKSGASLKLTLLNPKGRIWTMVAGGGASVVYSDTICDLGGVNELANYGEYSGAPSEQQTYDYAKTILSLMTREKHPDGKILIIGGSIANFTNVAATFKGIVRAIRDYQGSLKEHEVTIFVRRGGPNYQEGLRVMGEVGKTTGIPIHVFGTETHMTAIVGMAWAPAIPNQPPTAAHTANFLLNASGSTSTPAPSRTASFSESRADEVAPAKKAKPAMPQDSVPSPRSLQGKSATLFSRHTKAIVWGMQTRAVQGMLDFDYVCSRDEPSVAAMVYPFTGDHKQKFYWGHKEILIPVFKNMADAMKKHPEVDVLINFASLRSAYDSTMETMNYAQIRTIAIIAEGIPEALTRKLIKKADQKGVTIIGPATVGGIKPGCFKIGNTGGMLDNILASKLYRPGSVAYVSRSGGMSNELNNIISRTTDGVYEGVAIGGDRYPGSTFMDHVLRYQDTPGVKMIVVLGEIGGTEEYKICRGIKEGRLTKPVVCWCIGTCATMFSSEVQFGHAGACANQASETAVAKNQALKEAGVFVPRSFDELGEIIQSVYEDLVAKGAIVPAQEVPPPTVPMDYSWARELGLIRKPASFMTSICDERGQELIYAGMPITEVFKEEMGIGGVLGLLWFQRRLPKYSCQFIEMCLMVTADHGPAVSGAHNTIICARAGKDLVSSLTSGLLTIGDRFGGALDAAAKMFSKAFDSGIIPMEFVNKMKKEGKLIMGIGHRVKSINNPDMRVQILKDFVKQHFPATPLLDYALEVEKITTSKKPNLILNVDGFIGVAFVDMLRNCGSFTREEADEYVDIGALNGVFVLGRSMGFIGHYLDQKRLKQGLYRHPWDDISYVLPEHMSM

T2: ATP-citrate synthase (Rattus norvegicus) (UniProt P16638)
T2 sequence (whole entry): T1 sequence (P16638 whole entry)

B1: ATP-citrate synthase (Rattus norvegicus), P16638 (protein)
chain: T1 sequence (P16638 whole entry)

Key:
[1] = molecular target: T1, ATP-citrate synthase; experiment: Reversible binding Ki was measured by the inhibition of the carbon-carbon bond cleavage activity against rat ATP-Citrate Lyase
[2] = molecular target: T2, ATP-citrate synthase (Rattus norvegicus); experiment: Inhibitory activity against rat ATP-Citrate lyase measured in terms of Vmax.
[3] = compound: C[S+](=N)([O-])C[C@@](O)(CC(=O)O)C(=O)O; experiment: Inhibitory activity against rat ATP-Citrate lyase measured in terms of Km.
[4] = substrate: O=C(O)CC(O)(CC(=O)O)C(=O)O

Molecule	Ki [1] [mM]	also measured
O=C(O)C[C@H](C[C@]1(O)CNC1=O)C(=O)O	> 9	
O=C(O)C[C@H](C[C@@]1(O)CNC1=O)C(=O)O	> 20	
C[S+](=N)([O-])C[C@@](O)(CC(=O)O)C(=O)O (stereo in doubt; 12a) [listing 1 of 2 here]	0.25	
C[S+](=N)([O-])C[C@@](O)(CC(=O)O)C(=O)O (stereo in doubt; 12a) [listing 2 of 2 here]		Relative Vmax [2]: 0.25
C[S+](=N)([O-])C[C@@](O)(CC(=O)O)C(=O)O (stereo in doubt; 12b) [listing 1 of 2 here]	> 10	
C[S+](=N)([O-])C[C@@](O)(CC(=O)O)C(=O)O (stereo in doubt; 12b) [listing 2 of 2 here]		Relative Vmax [2]: < 0.003
B1		Km [3]: 1300 µM; Km [4]: 110 µM
